Experimental data as given in patent US20130131321A1, “LIGANDS FOR ANTIBODY AND Fc-FUSION PROTEIN PURIFICATION BY AFFINITY CHROMATOGRAPHY” (GRAFFINITY PHARMACEUTICALS GMBH, priority 2010, published 2013).

Experiments:
Bevacizumab [1] = target: T1, Bevacizumab (Homo sapiens, UniProt P01857); test: Microtiter plate chromatography of resins, Bevacizumab whole IgG (bound, yield, selectivity); format: binding, humanized
T1 construct: fused on or other part: humanised anti-VEGF-A VH domain N-terminal of the gamma-1 constant region (engineered, no UniProt entry)

[2] = tested on: human poly-IgG (h-poly-IgG); test: Microtiter plate chromatography of resins, human poly-IgG (bound, yield); format: binding
Bevacizumab [3] = target: T1, Bevacizumab; test: Dynamic and equilibrium binding capacity by column chromatography; set-up: species or system humanized; conditions: 1 mg ml^−1 Bevacizumab
Description: Dynamic binding capacities were determined by column chromatography with purified Bevacizumab. Resins were packed into analytical columns of 25 mm length and 3 mm inner diameter. Columns were fed with 1 mg ml^−1 antibody in phosphate-buffered saline (150 mM NaCl, 20 mM phosphate buffer, pH 7.3) at constant flow rate, while the concentration of antibody in effluents was monitored online via absorbance at 280 nm. Antibody was loaded until effluent concentration reached at least 10% of the feed concentration. Dynamic binding capacities were determined at a flow rate of 50 cm h^−1, corresponding to 3 min empty column residence time. Equilibrium capacities were also determined at a flow rate of 50 cm h^−1 by loading until complete breakthrough of antibody. […]
‘Dynamic capacity’ was defined as the amount of antibody that can be injected onto a column at constant flow rate until the effluent concentration reaches 10% of the feed concentration. It was calculated as the time t0.1 after which 10% breakthrough occurred, multiplied by the flow rate F and feed concentration cf.
Equilibrium capacity is defined as the maximum amount of antibody that binds to a column for a given feed stream concentration. It was calculated by evaluation of the following integral
The integral was evaluated numerically. […]

[4] = Alkaline stability in sodium hydroxide, LC-MS; format: physicochemical; conditions: 25° C., 8 days
Description: It was either treated with 0.1 M or 0.5 M sodium hydroxide at 25° C. Hydrolysis was monitored by LC-MS analysis.

Bevacizumab [5] = target: T1, Bevacizumab; test: Uptake kinetics by batch adsorption (time-scale of binding); set-up: species or system humanized; conditions: 0.75 mg ml^−1 Bevacizumab in PBS, 25° C.
Description: Uptake kinetics were investigated similarly by batch adsorption in 96-well filter plates. Again, 10 μl of sorbent slurry (50% v/v) were mixed with 100 μl of protein solution. However, a fixed initial concentration of 0.75 mg ml^−1 Bevacizumab in PBS was used. Reactions were agitated vigorously at 25° C. for up to 80 min. Supernatants were separated rapidly by spinning through filters after 2.5, 5, 10, 20, 40 and 80 minutes and sampled for analysis. Concentrations of the antibody were analyzed by Bradford assay.
Uptake kinetics were characterized by a time-scale of binding t0.8, which was defined as the time after which 80% of the equilibrium saturation of resin with antibody had occurred. For determination of t0.8, measured concentrations in the supernatant were interpolated by fitting of double-exponentials (5) and values of t0.8 were read out from graphs. Parameters of Langmuir isotherms and time-scales of binding for in-house resins as well as for reference resins are reported in the table below.

COc1ccc(NC(=O)c2cc(-c3ccco3)n(C)n2)cc1C(=O)NCCCN [Ligand L1, 5-[5-(2-Furyl)-1-methylpyrazol-3-yl]carboxamido-2-methoxybenzoic acid N-(3-aminopropyl)amide]
Bevacizumab IgG Bound (%) (Bevacizumab [1]; fraction of whole IgG Bevacizumab bound to resin): 100% | Bevacizumab IgG Yield (%) (Bevacizumab [1]; mass of whole IgG Bevacizumab eluted / mass injected): 91% | h-poly-IgG Bound (%) [2]: 100% | h-poly-IgG Yield (%) [2]: 90% | Dynamic Capacity (Bevacizumab [3]; 50 cm h^−1, 10% breakthrough): 20.2 mg per ml of resin | Equilibrium Capacity (Bevacizumab [3]; 50 cm h^−1, complete breakthrough): 25.7 mg per ml of resin | degradation (alkaline stability) ([4]; 0.1 M NaOH): no degradation | half-life ([4]; 0.5 M sodium hydroxide solution, 0.5 M NaOH): 12 days | t0.8 (time-scale of binding, 80% of equilibrium saturation) (Bevacizumab [5]): 9.9 min
